Laboratory results reported in patent US10537607B2, “Treatment of autoimmune and/or inflammatory disease using novel caveolin modulators” (E&B TECHNOLOGIES LLC, priority 2013, dated 2020).
“Also recorded” adds a separate entry of the source.

How the values were obtained:
traumatic brain injury = experiment: Traumatic brain injury, controlled cortical impact model; type: in vivo, rat; conditions: rats
Text: Sprague Dawley rats (10 week old) are anesthetized using 1-2% isoflurane and fixed in a stereotactic frame. The skull is surgically exposed and a craniectomy 2.5 mm in radius is made centered on coordinates −0.2 mm anterior and +0.2 mm lateral to midlineat the fronto-parietal cortex. A controlled cortical impactor (Pittsburgh Precision Instruments, Inc., Pittsburgh, Pa.) is used to deliver an impact using a velocity of 6.0 m/s and depth of 1.0 mm below the dura mater and duration of impact of 150 ms. The impactor is angled to impact the skull perpendicular to the brain at the point of impact. Animals are maintained at normal body temperature throughout the procedure. Following the impact, the incision is sutured and the animals are allowed to recover.
Neurological deficits are scored using the system of Clark assessed 24 and 48 hours post injury. See, Clark W et al., Citicoline treatment for experimental intracerebral hemorrhage in mice. Stroke; a journal of cerebral circulation. 1998; 29(10):2136-40. PubMed PMID: 9756595.
At 48 hours post TBI, rats are sacrificed and the brains sectioned and tissue processed for immunohistochemistry. […] See, Glushakov et al., Prostaglandin F2alpha FP receptor antagonist improves outcomes after experimental traumatic brain injury, Journal of neuroinflammation. 2013; 10(1):132. doi: 10.1186/1742-2094-10-132. PubMed PMID:24172576.

[1] = system: dextran sulfate sodium colitis; experiment: Dextran sulfate sodium model of inflammatory bowel disease; type: in vivo, mouse; conditions: C57B1/6 mice, DSS 2% in drinking water, 2.5 mg/kg i.p. daily from day 1
Protocol: C57B1/6 mice are fed dextran sulfate sodium 2% in the drinking water for 9 days. Body weights are measured daily. At the end of 9 days, mice are sacrificed and the first distal centimeter of the colon subject to histopathological analysis. Sections are scored according to the scoring system described in Jirkof et al., Burrowing is a sensitive behavioral assay for monitoring general wellbeing during dextran sulfate sodium colitis in laboratory mice. Laboratory animals. 2013, 47(4):274-83. doi: 10.1177/0023677213493409. PubMed PMID:23828853.

[2] = system: experimental autoimmune encephalitis; conditions: experimental model of autoimmune encephalitis; cited from earlier work
[3] = system: mustard oil-induced vascular permeability; type: in vivo, mouse; conditions: mice, one-hour pretreatment, AP-Cav 1 mg/kg or same molar dose, vs carrier peptide alone, 30 min
Protocol: Plasma leakage in mouse skin was studied using the Miles assay as previously described. Briefly, male Swiss mice (30-35 g) were anesthetized and injected with Evans blue (30 mg/kg in PBS; Sigma). […] (5% in mineral oil), an analog of mustard oil (Pierce, Rockford, Ill.) was applied on the right ear with a cotton tip. The left ear was used as a control and was treated with mineral oil alone. After 30 minutes, the anesthetized animals were sacrificed, perfused, ears were removed, dried and weighed. Evans blue was extracted from the ears with formamide and quantified spectrophotometrically at 595 nm.

[4] = system: VEGF-induced NO release (eNOS activity) in BAEC; experiment: VEGF-induced NO release in cultured BAEC; type: cell-based, bovine; conditions: for effect on VEGF-induced NO release (in words) / inhibition of VEGF-induced NO release: 6 h pretreatment; for effect on basal (unstimulated) NO release: six-hour pretreatment, NO-specific chemiluminescence
Protocol: VEGF-induced NO release experiments were performed as previously described.
[…] Media was removed and fresh serum-free DMEM was added, with or without VEGF (10^−9 M) for 30 minutes. Media was collected, cells were trypsinized and counted, and nitrites levels in the supernatant were determined by using a Sievers NO chemiluminescence analyzer.

BAEC = experiment: Quantification of internalization of fluorophore-labelled peptides; type: cell-based, bovine; conditions: cultured endothelial cells
Protocol: Cultured BAEC were grown in 6-well plates until confluence was reached. Cells were washed and incubated in 1 mL of DMEM containing labeled peptides (10^−6 M) for 1, 2, 4 or 6 hours at 37° C., washed three times with cold PBS containing 0.1 M glycine (pH 4) to remove non-specific surface staining.
After complete media removal, cells were trypsinized, centrifuged and proteins were extracted by adding 150 μL of SDS-based or Triton X-100 lysis buffer. Membranes were removed by centrifugation, and internalized peptides were quantified by using a fluorescence plate reader (Perseptive Biosystems).
Cells incubated with peptides for 5 minutes and washed as described were used as basal surface staining. Linearity of both fluorophores used was determined by performing a concentration-fluorescence curve using lysis solution. Experiments with each fluorophore were performed individually to prevent cross-interference.

HUVEC = experiment: CPP imaging of live HUVEC (pulse/chase epifluorescence microscopy); type: cell-based, human; conditions: for intracellular staining after pulse: carboxyfluorescein-Endo5 and rhodamine-AP, 10^−6M, 1 h at 37° C.; for intracellular staining after chase: two-hour chase in absence of CPP
Protocol: Freshly isolated HUVEC were grown in M199 media supplemented with glutamine, 10% FBS and endothelial cell growth supplement on Petri dishes with glass bottom. Since CPPs bind non-specifically to glass, the background fluorescence was reduced by pretreating glass-bottom Petri dishes with a blocking solution containing unlabelled AP and Endo5 for 30 minutes (5×10^−5 M) in colorless M199 media with 1% FBS.
After cell seeding, media was removed and carboxyfluorescin-labeled Endo5 and Rhodamine-labeled AP were added to cells (10^−5M) and cells were incubated at 37° C. and 5% CO2 for 1 hour (pulse). Media was removed, cells were rinsed once with warm culture media and peptide uptake was rapidly visualized on a Zess Axiovert inverted fluorescence microscope by performing a Z-stack of captured images followed by volume deconvolution (Openlab software). The new media was left on cells for an additional 2 hours (total 3 hours) to chase CPP localization, and cells were visualized again (chase).
In the present study, epifluorescence microscopy experiments were performed in live HUVEC to compare the uptake mechanism of Endo5 to AP. After blocking glass bottom Petri dishes with unlabeled AP and Endo5 to minimize non-specific binding of labeled peptides, freshly isolated HUVEC were grown to 50% confluent and labeled with a “pulse” of carboxyfluorescein-Endo5 and rhodamine-AP (10^−6M) for 1 h, rinsed, followed by a two-hour “chase” for a total of 3 hours.

multiple sclerosis = experiment: Treatment of patients diagnosed with multiple sclerosis; type: in vivo, human; conditions: 80 mg per day by subcutaneous injection
Protocol: Patients diagnosed with MS, including relapsing remitting and primary progressive types, are treated with Endo-5 CavAB (SEQ ID NO.1/SEQ ID NO. 6) (or other caveolin analog) at 80 mg per day by subcutaneous injection. […] The changes in the patient receiving the treatment are measured using the Multiple Sclerosis Functional Composite. See, e.g., the website of the National MS Society: Clinical Study Measures.

[5] = BAEC, peptide 10^−5 M, VEGF 10^−9 M 30 min

## cavtratin: caveolin mimetic, a fusion peptide of a cell penetrating peptide to the caveolin scaffolding domain; first generation (RQIKIWFQNRRMKWKKDGIWKASFTTFTVTKYWFYR)
Traumatic brain injury; 2.5 mg/kg i.p. immediately after TBI and at 24 hours, scored 24 and 48 hours post injury
  neurological deficits (Clark score): reduces the observed neurological deficits
Traumatic brain injury; 2.5 mg/kg i.p., 48 hours post TBI
  GFAP expression in the lesion penumbra: reduces GFAP expression
[1]
  histopathologic score of the colon: improve the histopathologic sore
  weight loss at 9 days: reduce the weight loss
[2]
  blood brain barrier disruption: inhibited
  clinical score / functional deficits: improve; also recorded: ameliorates
  edema: block
  inflammatory cell (CD45+) invasion into the brain parenchyma: block; also recorded: inhibited

## Endo5 (RRPPR) with cargo DGIWKASFTTFTVTKYWFYR, caveolin-1 amino acids 82-101, fused to its C-terminus (RRPPRDGIWKASFTTFTVTKYWFYR; listed as Homo sapiens) [Endo5-Cav]
[3]
  inhibition of mustard oil-induced vascular leakage: 58%
[4]; BAEC, 10^−5 M, 4 hours pretreatment
  eNOS inhibition (VEGF-induced NO release), in words: complete eNOS inhibition
[4]; BAEC, Endo5-Cav 10^−5 M 6 h, AP 5×10^−5 M pretreatment
  inhibition of VEGF-induced NO release after pretreatment with AP: 30%
[4]; BAEC, Endo5-Cav 10^−5 M 6 h, Endo5 5×10^−5 M pretreatment
  inhibition of VEGF-induced NO release after pretreatment with Endo5: 13%
[4]; BAEC, construct 10^−5 M 6 h, AP or Endo5 5×10^−5 M
  fate of the inhibition of VEGF-induced NO release after pretreatment with either AP or Endo5: partially prevented
[4]; [5]
  effect on VEGF-induced NO release (in words): completely impaired; also recorded: near-maximum effect; also recorded: completely blocked
  inhibition of VEGF-induced NO release: 91%
[4]; BAEC, 10^−5 M
  effect on basal (unstimulated) NO release: no significant effect
[4]; inferred from 2 h Endo5-Cav vs 6 h AP-Cav pretreatment, 10^−5 M
  rate of uptake relative to AP-Cav: approximately three times

## RRPPR [Endo5, five-amino acid cell-permeable transport peptide]
BAEC
  rate of uptake / internalization relative to AP: three times greater
HUVEC
  intracellular staining after pulse: diffuse punctate cytoplasmic staining
  intracellular staining after chase: more concentrated rather than diffuse pattern
[4]; [5]
  effect on VEGF-induced NO release (in words): no significant effect
[4]; BAEC, 10^−5 M
  effect on basal (unstimulated) NO release: no significant effect

## RQIKIWFQNRRMKWKK (listed as Rattus norvegicus) [AP, 16-mer Antennapedia cell-permeable peptide, reference compound]
HUVEC
  intracellular staining after pulse: diffuse punctate cytoplasmic staining
  intracellular staining after chase: more concentrated rather than diffuse pattern
[4]; [5]
  effect on VEGF-induced NO release (in words): no significant effect
[4]; BAEC, 10^−5 M
  effect on basal (unstimulated) NO release: no significant effect

## Endo5-CavAB: 19-mer: Endo5 fused to Cav AB domain (amino acids 82-95 of human caveolin-1); second generation cavtratin (RRPPRDGIWKASFTTFTVT; listed as Homo sapiens)
[1]
  histopathologic score of the colon: improve the histopathologic sore
  weight loss at 9 days: reduce the weight loss
Multiple sclerosis
  symptoms of MS (motor function, gait): improves the symptoms of MS
[4]; BAEC, peptide 2×10^−6 M
  inhibition of VEGF-induced NO release: 49%
[4]; [5]
  effect on VEGF-induced NO release (in words): completely blocked
